Results: paper PMC12647645, “Structural interactions of BWC0977 with Klebsiella pneumoniae topoisomerase IV and biochemical basis of its broad-spectrum activity” (Communications Biology, 2025)
≈ marks a conversion by molar mass, not a printed value. Where two headings read alike, the source gives them in different places.

Experiments:
[1] = tested on: E. coli MG1655 (GyrA WT, ParC WT); assay: microbe, parasite or virus in culture; type: cell-based; conditions: Escherichia coli
[2] = tested on: E. coli MG1655 GyrA D82N, ParC WT; assay: microbe, parasite or virus in culture; type: cell-based; conditions: Escherichia coli
[3] = tested on: E. coli MG1655 GyrA WT, ParC D79N; assay: microbe, parasite or virus in culture; type: cell-based; conditions: Escherichia coli
[4] = tested on: E. coli MG1655 GyrA D82N, ParC D79N; assay: microbe, parasite or virus in culture; type: cell-based; conditions: Escherichia coli
[5] = tested on: E. coli MG1655 GyrA M120A, ParC M118A; assay: microbe, parasite or virus in culture; type: cell-based; conditions: Escherichia coli
[6] = tested on: E. coli MG1655 GyrA R121K, ParC WT; assay: microbe, parasite or virus in culture; type: cell-based; conditions: Escherichia coli
[7] = tested on: E. coli MG1655 GyrA WT, ParC R119K; assay: microbe, parasite or virus in culture; type: cell-based; conditions: Escherichia coli
[8] = target: T1, E. coli gyrase (Escherichia coli, UniProt P0AES4+P0AES6); assay: biochemical; type: biochemical
T1 construct: purchased Inspiralis

[9] = target: T2, E. coli topoisomerase IV (Escherichia coli, UniProt P0AFI2+P20083); assay: biochemical; type: biochemical; conditions: read-out: IC50 E. coli topo IV decatenation
T2 construct: purchased Inspiralis

[10] = tested on: A. baumannii ATCC 19606; assay: MIC broth microdilution; type: cell-based; conditions: Acinetobacter baumannii
[11] = tested on: A. baumannii ATCC 19606 resistant mutant colonies (mutant 1-5); assay: microbe, parasite or virus in culture; type: cell-based; conditions: Acinetobacter baumannii
[12] = target: Human topo IIα (Homo sapiens, UniProt P11388); assay: Human topo IIα decatenation assay; type: biochemical
Method: (§1) Human topo IIα (0.9 nM) and topo IIß (2.2 nM) decatenation assays were performed following the same protocol used for bacterial topoisomerase IV decatenation assays. The assay buffer was made of 50 mM Tris. HCl (pH 7.5), 125 mM NaCl, 10 mM MgCl2, 5 mM DTT, and 100 μg/mL albumin.

[13] = target: Human topo IIß (Homo sapiens, UniProt Q02880); assay: Human topo IIß decatenation assay; type: biochemical
Method: as §1

[14] = ATCC19606, WT, Supplementary Table 4, read-out: MIC 90 in (μg/mL), A. baumannii ATCC 19606 (WT)
[15] = ATCC19606, read-out: MIC 90 in (μg/mL), resistant mutant colony 3
[16] = ATCC19606, read-out: MIC 90 in (μg/mL), resistant mutant colony 5
[17] = ATCC19606, read-out: MIC 90 in (μg/mL), resistant mutant colony 1
[18] = ATCC19606, read-out: MIC 90 in (μg/mL), resistant mutant colony 2
[19] = ATCC19606, read-out: MIC 90 in (μg/mL), resistant mutant colony 4

CC1(C)S[C@@H]2[C@H](NC(=O)[C@H](N)c3ccccc3)C(=O)N2[C@H]1C(=O)O [Ampicillin]
MIC [1]: 5 µg/mL (≈ 14.3 µM) | MIC [2]: 5 µg/mL (≈ 14.3 µM) | MIC [3]: 2.5 µg/mL (≈ 7.15 µM) | MIC [4]: 3.3 µg/mL (≈ 9.44 µM) | MIC [5]: 4.2 µg/mL (≈ 12 µM) | MIC [6]: 4.2 µg/mL (≈ 12 µM) | MIC [7]: 5 µg/mL (≈ 14.3 µM)

C[C@H]1COc2c(N3CCN(C)CC3)c(F)cc3c(=O)c(C(=O)O)cn1c23 [Levofloxacin]
IC50 [8]: 0.39 µM | IC50 [9]: 13 µM | MIC [1]: 0.03 µg/mL (≈ 0.083 µM) | MIC [2]: 0.13 µg/mL (≈ 0.36 µM) | MIC [3]: 0.02 µg/mL (≈ 0.0553 µM) | MIC [4]: 0.25 µg/mL (≈ 0.692 µM) | MIC [5]: 0.02 µg/mL (≈ 0.0553 µM) | MIC [6]: 0.08 µg/mL (≈ 0.221 µM) | MIC [7]: 0.04 µg/mL (≈ 0.111 µM)

C[C@@H](O)[C@H]1C(=O)N2C(C(=O)O)=C(S[C@@H]3CN[C@H](C(=O)N(C)C)C3)[C@H](C)[C@H]12 [Meropenem]
MIC90 [10, 14]: 0.3 µg/mL (≈ 0.782 µM) | MIC90 [11, 15]: 0.15 µg/mL (≈ 0.391 µM) | MIC90 [11, 16]: 0.6 µg/mL (≈ 1.56 µM)

CO[C@@H]1[C@@H](OC(N)=O)[C@@H](O)[C@H](Oc2ccc3c(O)c(NC(=O)c4ccc(O)c(CC=C(C)C)c4)c(=O)oc3c2C)OC1(C)C [Novobiocin]
MIC90 [10, 14]: 10 µg/mL (≈ 16.3 µM)

CO[C@H]1/C=C/O[C@@]2(C)Oc3c(C)c(O)c4c(O)c(c(/C=N/N5CCN(C)CC5)c(O)c4c3C2=O)NC(=O)/C(C)=C\C=C\[C@H](C)[C@H](O)[C@@H](C)[C@@H](O)[C@@H](C)[C@H](OC(C)=O)[C@@H]1C [Rifampicin]
MIC90 [10, 14]: 2.5 µg/mL (≈ 3.04 µM) | MIC90 [11, 17]: 1.25 µg/mL (≈ 1.52 µM)

CC[C@H]1OC(=O)[C@@](C)(F)C(=O)[C@H](C)[C@@H](O[C@@H]2O[C@H](C)C[C@H](N(C)C)[C@H]2O)[C@](C)(OC)C[C@@H](C)C(=O)[C@H](C)[C@H]2N(CCCCn3cc(-c4cccc(N)c4)nn3)C(=O)O[C@]12C [Solithromycin]
MIC90 ([10]; ATCC19606, read-out: MIC 90 in (μg/mL), A. baumannii ATCC 19606 (WT)): 2.5 µg/mL (≈ 2.96 µM) | MIC90 [11, 17]: 5 µg/mL (≈ 5.92 µM) | MIC90 [11, 18]: 2.5 µg/mL (≈ 2.96 µM) | MIC90 [11, 15]: 2.5 µg/mL (≈ 2.96 µM) | MIC90 [11, 19]: 5 µg/mL (≈ 5.92 µM) | MIC90 [11, 16]: 2.5 µg/mL (≈ 2.96 µM)

COc1cc([C@@H]2c3cc4c(cc3[C@@H](O[C@@H]3O[C@@H]5CO[C@@H](c6cccs6)O[C@H]5[C@H](O)[C@H]3O)[C@H]3COC(=O)[C@H]23)OCO4)cc(OC)c1O [Teniposide]
IC50 ([12]; read-out: IC50 Human topo IIα decatenation): 18 ± 5 µM | IC50 [13]: 92 µM

CN(C)[C@@H]1C(O)=C(C(N)=O)C(=O)[C@@]2(O)C(O)=C3C(=O)c4c(O)cccc4[C@@](C)(O)[C@H]3C[C@@H]12 [Tetracycline]
MIC90 [10, 14]: 0.3 µg/mL (≈ 0.675 µM) | MIC90 [11, 17]: 0.6 µg/mL (≈ 1.35 µM) | MIC90 [11, 18]: 0.6 µg/mL (≈ 1.35 µM) | MIC90 [11, 15]: 0.6 µg/mL (≈ 1.35 µM) | MIC90 [11, 19]: 0.6 µg/mL (≈ 1.35 µM) | MIC90 [11, 16]: 0.6 µg/mL (≈ 1.35 µM)

C[C@@H]1CN2c3c(cc4c(N5C(=O)OC[C@@H]5C)noc4c3F)CC3(C(=O)NC(=O)NC3=O)[C@H]2[C@H](C)O1 [Zoliflodacin]
IC50 [8]: 0.8 µM | IC50 [9]: 27 ± 12 µM | IC50 [12]: > 200 µM
